Assay results reported in patent publication US20260130395A1, “Water Dispersible Botanical Compositions” (Aquila Black Limited, priority 2021, published 2026).

Assay: Stability of cannabinoid compounds and Vitamin E components in Beverage 1 (AB White) by LCMSMS
Assay type: physicochemical
Conditions: for Stability of Plant-Derived Cannabinoid Compounds in AB White, 8° C.: AB White stored at 8° C.; for Stability of Plant-Derived Cannabinoid Compounds in AB White, 21-25° C.: AB White stored at 21-25° C.

CCCCCc1cc(O)c2c(c1)OC(C)(CCC=C(C)C)C=C2 (stereo not drawn) [CBC, cannabichromene]
Stability of Plant-Derived Cannabinoid Compounds in AB White, 8° C. (0 days): 0.320 µg/mL
Stability of Plant-Derived Cannabinoid Compounds in AB White, 8° C. (1 days): 0.314 µg/mL
Stability of Plant-Derived Cannabinoid Compounds in AB White, 8° C. (2 days): 0.315 µg/mL
Stability of Plant-Derived Cannabinoid Compounds in AB White, 8° C. (3 days): 0.322 µg/mL
Stability of Plant-Derived Cannabinoid Compounds in AB White, 8° C. (5 days): 0.322 µg/mL
Stability of Plant-Derived Cannabinoid Compounds in AB White, 8° C. (8 days): 0.318 µg/mL
Stability of Plant-Derived Cannabinoid Compounds in AB White, 8° C. (9 days): 0.319 µg/mL
Stability of Plant-Derived Cannabinoid Compounds in AB White, 8° C. (10 days): 0.314 µg/mL
Stability of Plant-Derived Cannabinoid Compounds in AB White, 8° C. (11 days): 0.314 µg/mL
Stability of Plant-Derived Cannabinoid Compounds in AB White, 8° C. (12 days): 0.319 µg/mL
Stability of Plant-Derived Cannabinoid Compounds in AB White, 8° C. (15 days): 0.317 µg/mL
Stability of Plant-Derived Cannabinoid Compounds in AB White, 8° C. (16 days): 0.320 µg/mL
Stability of Plant-Derived Cannabinoid Compounds in AB White, 8° C. (17 days): 0.315 µg/mL
Stability of Plant-Derived Cannabinoid Compounds in AB White, 8° C. (18 days): 0.312 µg/mL
Stability of Plant-Derived Cannabinoid Compounds in AB White, 8° C. (19 days): 0.317 µg/mL
Stability of Plant-Derived Cannabinoid Compounds in AB White, 8° C. (22 days): 0.315 µg/mL
Stability of Plant-Derived Cannabinoid Compounds in AB White, 8° C. (23 days): 0.321 µg/mL
Stability of Plant-Derived Cannabinoid Compounds in AB White, 8° C. (24 days): 0.316 µg/mL
Stability of Plant-Derived Cannabinoid Compounds in AB White, 8° C. (25 days): 0.310 µg/mL
Stability of Plant-Derived Cannabinoid Compounds in AB White, 8° C. (26 days): 0.316 µg/mL
Stability of Plant-Derived Cannabinoid Compounds in AB White, 8° C. (29 days): 0.321 µg/mL
Stability of Plant-Derived Cannabinoid Compounds in AB White, 8° C. (30 days): 0.31 µg/mL
Stability of Plant-Derived Cannabinoid Compounds in AB White, 8° C. (60 days): 0.316 µg/mL
Stability of Plant-Derived Cannabinoid Compounds in AB White, 8° C. (90 days): 0.318 µg/mL
Stability of Plant-Derived Cannabinoid Compounds in AB White, 8° C. (120 days): 0.311 µg/mL
Stability of Plant-Derived Cannabinoid Compounds in AB White, 8° C. (150 days): 0.314 µg/mL
Stability of Plant-Derived Cannabinoid Compounds in AB White, 8° C. (180 days): 0.319 µg/mL
Stability of Plant-Derived Cannabinoid Compounds in AB White, 8° C. (210 days): 0.309 µg/mL
Stability of Plant-Derived Cannabinoid Compounds in AB White, 8° C. (240 days): 0.316 µg/mL
Stability of Plant-Derived Cannabinoid Compounds in AB White, 8° C. (270 days): 0.316 µg/mL
Stability of Plant-Derived Cannabinoid Compounds in AB White, 8° C. (300 days): 0.313 µg/mL
Stability of Plant-Derived Cannabinoid Compounds in AB White, 8° C. (330 days): 0.316 µg/mL
Stability of Plant-Derived Cannabinoid Compounds in AB White, 8° C. (360 days): 0.306 µg/mL
Stability of Plant-Derived Cannabinoid Compounds in AB White, 8° C. (390 days): 0.310 µg/mL
Stability of Plant-Derived Cannabinoid Compounds in AB White, 8° C. (420 days): 0.307 µg/mL
Stability of Plant-Derived Cannabinoid Compounds in AB White, 8° C. (450 days): 0.312 µg/mL
Stability of Plant-Derived Cannabinoid Compounds in AB White, 8° C. (480 days): 0.305 µg/mL
Stability of Plant-Derived Cannabinoid Compounds in AB White, 8° C. (510 days): 0.295 µg/mL
Stability of Plant-Derived Cannabinoid Compounds in AB White, 8° C. (540 days): 0.299 µg/mL
Stability of Plant-Derived Cannabinoid Compounds in AB White, 8° C. (570 days): 0.293 µg/mL
Stability of Plant-Derived Cannabinoid Compounds in AB White, 21-25° C. (0 days): 0.320 µg/mL
Stability of Plant-Derived Cannabinoid Compounds in AB White, 21-25° C. (1 days): 0.313 µg/mL
Stability of Plant-Derived Cannabinoid Compounds in AB White, 21-25° C. (2 days): 0.318 µg/mL
Stability of Plant-Derived Cannabinoid Compounds in AB White, 21-25° C. (3 days): 0.311 µg/mL
Stability of Plant-Derived Cannabinoid Compounds in AB White, 21-25° C. (5 days): 0.323 µg/mL
Stability of Plant-Derived Cannabinoid Compounds in AB White, 21-25° C. (8 days): 0.319 µg/mL
Stability of Plant-Derived Cannabinoid Compounds in AB White, 21-25° C. (9 days): 0.307 µg/mL
Stability of Plant-Derived Cannabinoid Compounds in AB White, 21-25° C. (10 days): 0.312 µg/mL
Stability of Plant-Derived Cannabinoid Compounds in AB White, 21-25° C. (11 days): 0.311 µg/mL
Stability of Plant-Derived Cannabinoid Compounds in AB White, 21-25° C. (12 days): 0.316 µg/mL
Stability of Plant-Derived Cannabinoid Compounds in AB White, 21-25° C. (15 days): 0.311 µg/mL
Stability of Plant-Derived Cannabinoid Compounds in AB White, 21-25° C. (16 days): 0.321 µg/mL
Stability of Plant-Derived Cannabinoid Compounds in AB White, 21-25° C. (17 days): 0.323 µg/mL
Stability of Plant-Derived Cannabinoid Compounds in AB White, 21-25° C. (18 days): 0.313 µg/mL
Stability of Plant-Derived Cannabinoid Compounds in AB White, 21-25° C. (19 days): 0.316 µg/mL
Stability of Plant-Derived Cannabinoid Compounds in AB White, 21-25° C. (22 days): 0.322 µg/mL
Stability of Plant-Derived Cannabinoid Compounds in AB White, 21-25° C. (23 days): 0.316 µg/mL
Stability of Plant-Derived Cannabinoid Compounds in AB White, 21-25° C. (24 days): 0.308 µg/mL
Stability of Plant-Derived Cannabinoid Compounds in AB White, 21-25° C. (25 days): 0.310 µg/mL
Stability of Plant-Derived Cannabinoid Compounds in AB White, 21-25° C. (26 days): 0.308 µg/mL
